According to the supplement of paper PMC10307832:

What was measured:
Assay in all cases: relative viability (nuclei count vs DMSO), 5 days (fraction); higher = more cells survive
Salubrinal + Decitabine = compound: O=C(/C=C/c1ccccc1)NC(NC(=S)Nc1cccc2cccnc12)C(Cl)(Cl)Cl [Salubrinal] + Nc1ncn([C@H]2C[C@H](O)[C@@H](CO)O2)c(=O)n1 [Decitabine] (partner 2 µM)
Summary of the method: (§1)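 Lung cancer cell lines in 1536-well plates got either a single drug or a fixed anchor-drug dose together with five library-drug doses (not always all listed) in √10 steps, by pin tool, on the day after seeding. Nuclei were counted after 5 days, and relative viability is the treated-to-vehicle ratio of nuclei counts. Values are medians of duplicate plates.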

[1] = compound: Cc1ccc2nc(NCCN)c3ncc(C)n3c2c1 + CS(=O)(=O)CCNCc1ccc(-c2ccc3ncnc(Nc4ccc(OCc5cccc(F)c5)c(Cl)c4)c3c2)o1 [Lapatinib] (partner 2 µM)
Summary of the method: as §1

Salubrinal + Tozasertib = compound: O=C(/C=C/c1ccccc1)NC(NC(=S)Nc1cccc2cccnc12)C(Cl)(Cl)Cl [Salubrinal] + Cc1cc(Nc2cc(N3CCN(C)CC3)nc(Sc3ccc(NC(=O)C4CC4)cc3)n2)n[nH]1 [Tozasertib] (partner 0.1 µM)
Summary of the method: as §1

[2] = compound: Cc1ccc2nc(NCCN)c3ncc(C)n3c2c1 + O=C(c1cc(Cc2n[nH]c(=O)c3ccccc23)ccc1F)N1CCN(C(=O)C2CC2)CC1 [Olaparib] (partner 8 µM)
Summary of the method: as §1

201T
relative viability (Salubrinal + Decitabine; first compound 0.08 µM): 0.918 | relative viability (Salubrinal + Decitabine; first compound 0.253 µM): 0.815 | relative viability (Salubrinal + Decitabine; first compound 0.8 µM): 0.859 | relative viability (Salubrinal + Decitabine; first compound 2.53 µM): 0.84 | relative viability (Salubrinal + Decitabine; first compound 8 µM): 0.83 | relative viability ([1]; first compound 0.04 µM): 1.07 | relative viability ([1]; first compound 0.1265 µM): 1.03 | relative viability ([1]; first compound 0.4 µM): 0.989 | relative viability ([1]; first compound 1.265 µM): 1.17 | relative viability ([1]; first compound 4 µM): 0.98 | relative viability (Salubrinal + Tozasertib; first compound 0.08 µM): 0.873 | relative viability (Salubrinal + Tozasertib; first compound 0.253 µM): 0.837 | relative viability (Salubrinal + Tozasertib; first compound 0.8 µM): 0.933 | relative viability (Salubrinal + Tozasertib; first compound 2.53 µM): 0.98 | relative viability (Salubrinal + Tozasertib; first compound 8 µM): 0.967 | relative viability ([2]; first compound 0.04 µM): 0.945 | relative viability ([2]; first compound 0.1265 µM): 0.839 | relative viability ([2]; first compound 0.4 µM): 0.804 | relative viability ([2]; first compound 1.265 µM): 0.829 | relative viability ([2]; first compound 4 µM): 0.823

A549
relative viability (Salubrinal + Decitabine; first compound 0.253 µM): 0.253 | relative viability (Salubrinal + Decitabine; first compound 0.8 µM): 0.245 | relative viability (Salubrinal + Decitabine; first compound 2.53 µM): 0.257 | relative viability (Salubrinal + Decitabine; first compound 8 µM): 0.246 | relative viability ([1]; first compound 0.04 µM): 1.23 | relative viability ([1]; first compound 0.1265 µM): 0.941 | relative viability ([1]; first compound 0.4 µM): 0.918 | relative viability ([1]; first compound 1.265 µM): 1 | relative viability ([1]; first compound 4 µM): 0.83 | relative viability ([2]; first compound 0.04 µM): 0.409 | relative viability ([2]; first compound 0.1265 µM): 0.406 | relative viability ([2]; first compound 0.4 µM): 0.333 | relative viability ([2]; first compound 1.265 µM): 0.317 | relative viability ([2]; first compound 4 µM): 0.301

A-427
relative viability (Salubrinal + Decitabine; first compound 0.08 µM): 0.575 | relative viability (Salubrinal + Decitabine; first compound 0.253 µM): 0.564 | relative viability (Salubrinal + Decitabine; first compound 0.8 µM): 0.57 | relative viability (Salubrinal + Decitabine; first compound 2.53 µM): 0.539 | relative viability (Salubrinal + Decitabine; first compound 8 µM): 0.597 | relative viability ([1]; first compound 0.04 µM): 1.13 | relative viability ([1]; first compound 0.1265 µM): 1.06 | relative viability ([1]; first compound 0.4 µM): 1.02 | relative viability ([1]; first compound 1.265 µM): 0.957 | relative viability ([1]; first compound 4 µM): 1.06 | relative viability (Salubrinal + Tozasertib; first compound 0.08 µM): 0.22 | relative viability (Salubrinal + Tozasertib; first compound 0.253 µM): 0.226 | relative viability (Salubrinal + Tozasertib; first compound 0.8 µM): 0.227 | relative viability (Salubrinal + Tozasertib; first compound 2.53 µM): 0.227 | relative viability (Salubrinal + Tozasertib; first compound 8 µM): 0.21 | relative viability ([2]; first compound 0.04 µM): 0.723 | relative viability ([2]; first compound 0.1265 µM): 0.672 | relative viability ([2]; first compound 0.4 µM): 0.693 | relative viability ([2]; first compound 1.265 µM): 0.711 | relative viability ([2]; first compound 4 µM): 0.63

ABC-1
relative viability (Salubrinal + Decitabine; first compound 0.08 µM): 1.42 | relative viability (Salubrinal + Decitabine; first compound 0.253 µM): 0.915 | relative viability (Salubrinal + Decitabine; first compound 0.8 µM): 1.14 | relative viability (Salubrinal + Decitabine; first compound 2.53 µM): 1.01 | relative viability (Salubrinal + Decitabine; first compound 8 µM): 1.13 | relative viability ([1]; first compound 0.04 µM): 1.18 | relative viability ([1]; first compound 0.1265 µM): 1.16 | relative viability ([1]; first compound 0.4 µM): 1.12 | relative viability ([1]; first compound 1.265 µM): 0.783 | relative viability ([1]; first compound 4 µM): 1.03 | relative viability (Salubrinal + Tozasertib; first compound 0.08 µM): 0.168 | relative viability (Salubrinal + Tozasertib; first compound 0.253 µM): 0.185 | relative viability (Salubrinal + Tozasertib; first compound 0.8 µM): 0.194 | relative viability (Salubrinal + Tozasertib; first compound 2.53 µM): 0.183 | relative viability (Salubrinal + Tozasertib; first compound 8 µM): 0.206 | relative viability ([2]; first compound 0.04 µM): 0.781 | relative viability ([2]; first compound 0.1265 µM): 0.785 | relative viability ([2]; first compound 0.4 µM): 0.639 | relative viability ([2]; first compound 1.265 µM): 0.691 | relative viability ([2]; first compound 4 µM): 1.04

CAL-12T
relative viability ([1]; first compound 0.04 µM): 0.892 | relative viability ([1]; first compound 0.1265 µM): 0.714 | relative viability ([1]; first compound 0.4 µM): 0.674 | relative viability ([1]; first compound 1.265 µM): 0.553 | relative viability ([1]; first compound 4 µM): 0.502 | relative viability (Salubrinal + Tozasertib; first compound 0.08 µM): 0.32 | relative viability (Salubrinal + Tozasertib; first compound 0.253 µM): 0.279 | relative viability (Salubrinal + Tozasertib; first compound 0.8 µM): 0.323 | relative viability (Salubrinal + Tozasertib; first compound 2.53 µM): 0.241 | relative viability (Salubrinal + Tozasertib; first compound 8 µM): 0.241 | relative viability ([2]; first compound 0.04 µM): 0.77 | relative viability ([2]; first compound 0.1265 µM): 0.738 | relative viability ([2]; first compound 0.4 µM): 0.827 | relative viability ([2]; first compound 1.265 µM): 0.804 | relative viability ([2]; first compound 4 µM): 0.625

Calu-6
relative viability ([1]; first compound 0.04 µM): 1.09 | relative viability ([1]; first compound 0.1265 µM): 1.03 | relative viability ([1]; first compound 0.4 µM): 1.07 | relative viability ([1]; first compound 1.265 µM): 1.07 | relative viability ([1]; first compound 4 µM): 0.737 | relative viability ([2]; first compound 0.04 µM): 0.574 | relative viability ([2]; first compound 0.1265 µM): 0.601 | relative viability ([2]; first compound 0.4 µM): 0.6 | relative viability ([2]; first compound 1.265 µM): 0.578 | relative viability ([2]; first compound 4 µM): 0.367

ChaGo-K-1
relative viability (Salubrinal + Decitabine; first compound 0.08 µM): 0.574 | relative viability (Salubrinal + Decitabine; first compound 0.253 µM): 0.523 | relative viability (Salubrinal + Decitabine; first compound 0.8 µM): 0.56 | relative viability (Salubrinal + Decitabine; first compound 2.53 µM): 0.523 | relative viability (Salubrinal + Decitabine; first compound 8 µM): 0.467 | relative viability (Salubrinal + Tozasertib; first compound 0.08 µM): 0.257 | relative viability (Salubrinal + Tozasertib; first compound 0.253 µM): 0.264 | relative viability (Salubrinal + Tozasertib; first compound 0.8 µM): 0.231 | relative viability (Salubrinal + Tozasertib; first compound 2.53 µM): 0.216 | relative viability (Salubrinal + Tozasertib; first compound 8 µM): 0.216 | relative viability ([2]; first compound 0.04 µM): 0.411 | relative viability ([2]; first compound 0.1265 µM): 0.458 | relative viability ([2]; first compound 0.4 µM): 0.412 | relative viability ([2]; first compound 1.265 µM): 0.426 | relative viability ([2]; first compound 4 µM): 0.402

EBC-1
relative viability ([1]; first compound 0.04 µM): 0.207 | relative viability ([1]; first compound 0.1265 µM): 0.201 | relative viability ([1]; first compound 0.4 µM): 0.233 | relative viability ([1]; first compound 1.265 µM): 0.179 | relative viability ([1]; first compound 4 µM): 0.191 | relative viability ([2]; first compound 0.04 µM): 0.679 | relative viability ([2]; first compound 0.1265 µM): 0.681 | relative viability ([2]; first compound 0.4 µM): 0.72 | relative viability ([2]; first compound 1.265 µM): 0.602 | relative viability ([2]; first compound 4 µM): 0.546

IA-LM
relative viability ([1]; first compound 0.04 µM): 1.02 | relative viability ([1]; first compound 0.1265 µM): 0.833 | relative viability ([1]; first compound 0.4 µM): 0.581 | relative viability ([1]; first compound 1.265 µM): 1 | relative viability ([1]; first compound 4 µM): 0.7 | relative viability ([2]; first compound 0.04 µM): 0.73 | relative viability ([2]; first compound 0.1265 µM): 0.793 | relative viability ([2]; first compound 0.4 µM): 0.974 | relative viability ([2]; first compound 1.265 µM): 0.795 | relative viability ([2]; first compound 4 µM): 0.721
